In patent US11865098B1, “Methods and compositions for treating excessive sleepiness” (Axsome Malta Ltd., priority 2017, dated 2024):

System: adult patients with OSA and ES
Experiment: WPAI:SHP work productivity and activity impairment, 12-week parallel study in OSA
Type: in vivo, human
Conditions: 150 and 300 mg; week 12
Procedure: The study was a 12-week, double-blind, placebo-controlled, parallel design study as described in greater detail in Example 1 (Schweitzer et al., Sleep 40(Abstract Supplement):A237. Abstract 0641 (2017)). Patients were randomized (1:1:2:2:2) to APC 37.5, 75, 150, 300 mg, or placebo for 12 weeks, and were stratified by adherence or non-adherence with primary OSA therapy (adherent definition was use for ≥4 hours per night on >70% of nights). Two patient-reported measures were included as secondary efficacy outcomes to evaluate the effects of APC on functional status and work productivity and activity impairment at baseline and weeks 1, 4, 8, and 12. The Functional Outcomes of Sleep questionnaire short version (FOSQ-10) (Chasens et al., Sleep 32(7):915 (2009)) evaluated the effects of ES on functioning. The Work Productivity and Activity Impairment questionnaire for Specific Health Problems (WPAI:SHP) (Reilly et al., Pharmacoeconomics 4(5):353 (1993); Reilly, Work Productivity and Activity Impairment Questionnaire: Specific Health Problem V2.0 (WPAI: SHP). www.reillyassociates.net/WPAI_SHP) evaluated work productivity impairment among employed patients and overall activity impairment outside of work among all patients for the past 7 days. […]

With `NC(=O)OC[C@H](N)Cc1ccccc1` [JZP-110, (R)-2-amino-3-phenylpropyl carbamate] the “WPAI:SHP presenteeism, overall work impairment and activity impairment compared to placebo” value was “significantly decreased lower presenteeism, overall work impairment, and activity impairment”.
